Molecular target: MeV RdRp (Measles morbillivirus (Measles virus), UniProt P12576)
Test: MeV minireplicon luciferase reporter assay
Format: cell-based
Conditions: BHK-T7 cells, 36 hours
Experimental: BSR T7/5 cells (5×10^5/well) were transfected with plasmid DNAs encoding MeV-L (0.24 µg), MeV-N (0.94 µg) or MeV-P (0.29 µg) and 2 µg of the MeV luciferase minigenome reporter plasmid. Control wells included identical amounts of reporter and helper plasmids but lacked the L-encoding plasmid. At the time of transfection, JMN3-003 was added as specified, while control wells received vehicle only for comparison. Thirty-six hours post-transfection, cells were lysed with Bright GLO lysis buffer and relative luciferase activities determined using the Britelite substrate and a luminescence counter as outlined above.

Chain of MeV RdRp (P12576 whole entry, change not shown): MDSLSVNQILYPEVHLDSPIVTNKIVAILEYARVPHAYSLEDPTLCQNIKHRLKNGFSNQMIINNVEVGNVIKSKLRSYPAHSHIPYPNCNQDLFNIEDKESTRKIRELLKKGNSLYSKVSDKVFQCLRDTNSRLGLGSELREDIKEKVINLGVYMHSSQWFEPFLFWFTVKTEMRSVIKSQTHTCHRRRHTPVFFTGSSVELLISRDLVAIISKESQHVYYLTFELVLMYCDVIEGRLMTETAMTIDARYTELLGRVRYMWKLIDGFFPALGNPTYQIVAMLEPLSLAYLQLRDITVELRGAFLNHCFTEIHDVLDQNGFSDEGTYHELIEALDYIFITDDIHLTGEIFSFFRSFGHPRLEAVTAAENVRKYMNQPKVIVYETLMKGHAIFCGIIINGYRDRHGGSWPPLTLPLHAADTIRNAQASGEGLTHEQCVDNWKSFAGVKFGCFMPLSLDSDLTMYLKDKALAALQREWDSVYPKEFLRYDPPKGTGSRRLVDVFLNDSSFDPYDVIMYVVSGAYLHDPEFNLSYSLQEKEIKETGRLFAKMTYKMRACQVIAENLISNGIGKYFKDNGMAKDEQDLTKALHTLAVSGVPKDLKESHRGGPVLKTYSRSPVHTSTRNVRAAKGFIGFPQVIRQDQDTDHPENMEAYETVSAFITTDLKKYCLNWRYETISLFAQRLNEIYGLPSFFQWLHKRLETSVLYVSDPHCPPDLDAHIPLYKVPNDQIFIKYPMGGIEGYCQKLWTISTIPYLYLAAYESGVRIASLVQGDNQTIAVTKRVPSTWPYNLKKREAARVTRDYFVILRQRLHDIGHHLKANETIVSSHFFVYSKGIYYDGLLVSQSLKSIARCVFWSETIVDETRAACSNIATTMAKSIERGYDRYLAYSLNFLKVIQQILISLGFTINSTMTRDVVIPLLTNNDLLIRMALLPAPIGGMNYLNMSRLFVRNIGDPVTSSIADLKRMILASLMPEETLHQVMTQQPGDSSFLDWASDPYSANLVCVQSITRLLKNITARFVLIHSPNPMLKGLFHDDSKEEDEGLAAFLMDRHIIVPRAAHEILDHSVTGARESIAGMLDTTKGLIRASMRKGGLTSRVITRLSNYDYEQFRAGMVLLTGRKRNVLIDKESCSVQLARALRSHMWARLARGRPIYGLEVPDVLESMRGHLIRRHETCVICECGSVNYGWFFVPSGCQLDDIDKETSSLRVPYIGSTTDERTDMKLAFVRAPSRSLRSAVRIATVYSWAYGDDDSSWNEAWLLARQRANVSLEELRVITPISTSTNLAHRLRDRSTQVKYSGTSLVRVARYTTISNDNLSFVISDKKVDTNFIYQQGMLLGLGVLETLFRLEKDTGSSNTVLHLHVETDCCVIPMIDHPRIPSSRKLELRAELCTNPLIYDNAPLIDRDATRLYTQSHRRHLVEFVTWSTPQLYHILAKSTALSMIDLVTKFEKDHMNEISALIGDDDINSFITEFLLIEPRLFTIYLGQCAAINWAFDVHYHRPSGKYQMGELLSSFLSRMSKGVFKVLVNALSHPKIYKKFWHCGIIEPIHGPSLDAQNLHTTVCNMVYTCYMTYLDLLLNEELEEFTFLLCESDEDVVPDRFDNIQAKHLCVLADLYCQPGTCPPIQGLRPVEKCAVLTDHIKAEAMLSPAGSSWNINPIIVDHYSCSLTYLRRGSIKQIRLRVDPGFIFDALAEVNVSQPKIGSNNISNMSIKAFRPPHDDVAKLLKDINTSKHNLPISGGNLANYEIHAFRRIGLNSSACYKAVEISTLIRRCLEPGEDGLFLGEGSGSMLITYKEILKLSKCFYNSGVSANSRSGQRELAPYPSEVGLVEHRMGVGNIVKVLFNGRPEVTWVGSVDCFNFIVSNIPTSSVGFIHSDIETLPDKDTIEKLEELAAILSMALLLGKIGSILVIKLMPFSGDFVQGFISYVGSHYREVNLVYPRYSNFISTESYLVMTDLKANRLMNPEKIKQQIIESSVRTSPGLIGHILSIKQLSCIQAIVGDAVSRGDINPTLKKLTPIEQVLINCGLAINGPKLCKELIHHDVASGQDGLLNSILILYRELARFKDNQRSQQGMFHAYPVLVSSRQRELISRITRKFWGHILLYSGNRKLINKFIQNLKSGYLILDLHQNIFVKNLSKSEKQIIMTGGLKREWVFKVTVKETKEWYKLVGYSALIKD
Chain of MeV RdRp (P03422 whole entry partner): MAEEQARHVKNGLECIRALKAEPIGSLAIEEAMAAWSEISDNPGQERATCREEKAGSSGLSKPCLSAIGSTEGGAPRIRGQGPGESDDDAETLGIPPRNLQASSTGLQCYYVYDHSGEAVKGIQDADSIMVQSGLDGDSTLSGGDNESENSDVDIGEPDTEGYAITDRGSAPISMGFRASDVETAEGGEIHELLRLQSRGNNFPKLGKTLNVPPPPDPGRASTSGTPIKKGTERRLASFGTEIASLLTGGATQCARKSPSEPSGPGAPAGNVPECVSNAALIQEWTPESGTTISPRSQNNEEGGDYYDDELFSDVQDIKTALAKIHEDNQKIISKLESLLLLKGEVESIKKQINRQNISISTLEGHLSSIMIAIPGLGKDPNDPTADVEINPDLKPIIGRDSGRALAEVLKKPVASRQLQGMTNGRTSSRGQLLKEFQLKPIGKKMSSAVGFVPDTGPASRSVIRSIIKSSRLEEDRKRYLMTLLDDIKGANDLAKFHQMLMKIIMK
Chain of MeV RdRp (P0DXN6 whole entry partner): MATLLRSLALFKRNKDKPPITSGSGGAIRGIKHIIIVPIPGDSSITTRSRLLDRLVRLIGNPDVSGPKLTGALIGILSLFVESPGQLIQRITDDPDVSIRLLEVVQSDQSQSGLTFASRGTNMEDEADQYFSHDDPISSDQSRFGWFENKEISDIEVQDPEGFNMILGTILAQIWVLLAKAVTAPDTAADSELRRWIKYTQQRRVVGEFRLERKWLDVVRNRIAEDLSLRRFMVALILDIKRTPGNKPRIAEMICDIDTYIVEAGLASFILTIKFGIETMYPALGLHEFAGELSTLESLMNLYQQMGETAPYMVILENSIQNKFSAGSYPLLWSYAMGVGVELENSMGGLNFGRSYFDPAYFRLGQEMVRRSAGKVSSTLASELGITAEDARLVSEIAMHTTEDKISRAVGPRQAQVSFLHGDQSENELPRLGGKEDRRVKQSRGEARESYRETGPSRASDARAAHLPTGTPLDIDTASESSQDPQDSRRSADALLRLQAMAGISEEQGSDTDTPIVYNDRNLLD

SMILES: COc1ccc(-n2c(SC(C)C(=O)Nc3ccc(C)cc3Cl)nc3ccccc32)cc1 (stereo not shown) [JMN3-003]
- concentration at which luciferase reporter expression was fully blocked: approximately 100 nM

Source: article PMC3095640, “Potent Host-Directed Small-Molecule Inhibitors of Myxovirus RNA-Dependent RNA-Polymerases” (PLoS ONE, 2011)
